Results from the supplement of paper PMC10307832.

How the values were obtained:
Assay in all cases: relative viability (nuclei count vs DMSO), 5 days (fraction); higher = more cells survive
[1] = compound: CCOc1cc2ncc(C#N)c(Nc3ccc(OCc4ccccn4)c(Cl)c3)c2cc1NC(=O)/C=C/CN(C)C [Neratinib] + CC(=O)Nc1cccc(-n2c(=O)n(C3CC3)c(=O)c3c(Nc4ccc(I)cc4F)n(C)c(=O)c(C)c32)c1 [Trametinib] (partner 0.02 µM)
Procedure, shortened: (§1)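 The day after seeding in 1536-well plates, lung cancer cell lines were treated by pin tool with a single drug, or with a fixed anchor-drug dose together with five library-drug doses (not always all listed) in √10 steps. After 5 days, a combined fix-and-stain solution (final 0.05% Triton X-100, 1% formaldehyde, 1 ug/ml Hoechst) was added. Nuclei counted on 4× images gave relative viability as treated counts over vehicle counts, reported as the median of duplicate plates.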

[2] = compound: CCOc1cc2ncc(C#N)c(Nc3ccc(OCc4ccccn4)c(Cl)c3)c2cc1NC(=O)/C=C/CN(C)C [Neratinib] + O=C(c1cc(Cc2n[nH]c(=O)c3ccccc23)ccc1F)N1CCN(C(=O)C2CC2)CC1 [Olaparib] (partner 8 µM)
Procedure, shortened: as §1

[3] = compound: CCOc1cc2ncc(C#N)c(Nc3ccc(OCc4ccccn4)c(Cl)c3)c2cc1NC(=O)/C=C/CN(C)C [Neratinib] + N=C(N)NC(=N)NCCc1ccccc1 [Phenformin] (partner 250 µM)
Procedure, shortened: as §1

[4] = compound: CCOc1cc2ncc(C#N)c(Nc3ccc(OCc4ccccn4)c(Cl)c3)c2cc1NC(=O)/C=C/CN(C)C [Neratinib] + CS(=O)(=O)CCNCc1ccc(-c2ccc3ncnc(Nc4ccc(OCc5cccc(F)c5)c(Cl)c4)c3c2)o1 [Lapatinib] (partner 2 µM)
Procedure, shortened: as §1

Cell Line	relative viability ([1]; first compound 0.01 µM)	relative viability ([1]; first compound 0.03162 µM)	relative viability ([1]; first compound 0.1 µM)	relative viability ([1]; first compound 0.3162 µM)	relative viability ([1]; first compound 1 µM)	relative viability ([2]; first compound 0.01 µM)	relative viability ([2]; first compound 0.03162 µM)	relative viability ([2]; first compound 0.1 µM)	relative viability ([2]; first compound 0.3162 µM)	relative viability ([2]; first compound 1 µM)	relative viability ([3]; first compound 0.01 µM)	relative viability ([3]; first compound 0.03162 µM)	relative viability ([3]; first compound 0.3162 µM)	relative viability ([3]; first compound 1 µM)	relative viability ([4]; first compound 0.01 µM)	relative viability ([4]; first compound 0.1 µM)	relative viability ([4]; first compound 0.3162 µM)	relative viability ([4]; first compound 1 µM)	relative viability ([3]; first compound 0.1 µM)	relative viability ([4]; first compound 0.03162 µM)
SW 900	0.866	0.906	0.527	0.729	0.467	0.975	0.826	0.714	0.662	0.607	0.537	0.658	0.609	0.309	–	–	–	–	–	–
NCI-H2126	0.646	0.552	0.543	0.497	0.36	0.958	0.891	0.815	0.871	0.492	0.534	0.535	0.484	0.381	0.79	0.735	0.754	0.672	0.487	–
LU99A	0.578	–	0.515	0.527	0.43	0.251	0.286	0.246	0.268	–	0.92	0.905	0.801	0.683	1.04	0.692	0.587	0.385	0.87	1.05
HCC-366	0.428	0.396	0.342	0.322	0.205	0.36	0.324	0.267	0.347	0.404	0.631	0.617	0.626	0.547	1.27	0.901	1.09	1.06	0.611	1.18
EKVX	0.353	0.334	0.315	0.139	0.162	0.86	–	0.624	0.341	0.203	0.241	0.244	0.206	0.132	0.186	0.179	0.195	0.189	0.226	0.212
NCI-H1755	0.761	0.814	0.646	0.752	0.809	0.925	0.922	0.807	0.918	0.824	0.641	0.657	0.593	0.577	1.03	0.969	1.12	1.09	0.535	1.07
NCI-H727	0.398	0.427	–	0.355	0.332	0.796	0.678	–	0.764	0.613	0.521	0.597	0.4	0.595	0.898	–	0.928	0.786	0.294	0.994
